Values of other authors as cited in patent US11986493B2 (University of Pittsburgh—Of the Commonwealth System of …, priority 2013, dated 2024).

System: hypoxic and normoxic subjects
Conditions: Ingram et al. (Am J. Phsiol. 298:H331-H339 (2010)); cited from earlier work

In the case of `O=NO` [nitrite, sodium nitrite], the “arterial and pulmonary vasodilation” value is given as “causes arterial and pulmonary vasodilation in hypoxic but not normoxic subjects”.
